From patent US9504701B2, “Methods for treating viral infections using hydrogen sulfide donors” (THE BOARD OF REGENTS OF THE UNIVERSITY OF TEXAS SYSTEM, priority 2014, dated 2016)

Legend:
[1] = test system: uninfected cells
[2] = test system: A549 cells infected with RSV; type: cell-based, human
[3] = test system: RSV; experiment: RSV replication in A549 cells, viral titers by plaque assay; type: cell-based, RSV Long strain; details: PAG 20 or 40 mM, 24 h p.i.

`C#CCC(N)C(=O)O` (racemic) [PAG, DL-propargylglycin] was tested, and the “basal cellular mediator secretion” value [1] was “no effect”, the “uninfected-cell viability (trypan blue exclusion)” value [1] was “no effect” and the “levels of production of several cytokines and chemokines in response to RSV infection” value [2] was “significantly increased”. The “increase in viral infectious-particle formation (plaque assay)” value [3] was 3- to 4 fold.
